{"source": "patent US20230404985A1", "about": "“METHODS OF TREATING TUMORS AND CANCERS HAVING DYSREGULATED WNT SIGNALING PATHWAYS” (ICAHN SCHOOL OF MEDICINE AT MOUNT SINAI, priority 2020, published 2023)", "key": {"[1]": {"test_system": "cytoplasmic kinases including BRAF and p38α/β", "assay": "NanoBRET live cell target engagement, cytoplasmic kinases", "format": "cell-based", "conditions": "relative to sorafenib and regorafenib", "procedure": "For NanoBRET™ dose response experiments, SNU398 cells were transfected with a MAPK14-NanoLuc© Fusion Vector according to the Promega NanoBRET™ TE Intracellular Kinase Assay protocol. Following overnight transfection, cells were trypsinized and redistributed on a white 96-well plate (20,000 cells per well). Cells were incubated with 1 μM of K-4 Tracer and sorafenib or WNTinib at doses ranging from 0.02→20 μM for two hours. After drug incubation, plates were equilibrated to room temperature for 15 minutes, and NanoBRET™ Nano-Glo© Substrate and Extracellular NanoLuc© Inhibitor were added to wells. Bioluminescent donor (NanoLuc© luciferase) and fluorescent acceptor (Tracer) emission were measured on a GloMax plate reader at 450 and 600 nm, respectively. BRET ratio is reported as acceptor signal divided by the donor signal for each well. Conditions were evaluated in technical triplicates for each experiment, and experiments were repeated in biological duplicates. […] The plate was continuously read on a GloMax plate reader for 2 hours to record BRET signal from the association of the K-4 Tracer with the MAPK14-NanoLuc© Fusion Vector. Conditions were evaluated in technical triplicates, and experiments were repeated in biological duplicates.\nIn order to characterize the direct targets of WNTinib, kinome selectivity profiles were first assessed by in vitro kinase assays. […]"}, "[2]": {"test_system": "MYC-CTNNB1 tumor organoid allografts", "assay": "MYC-CTNNB1 tumor organoid allografts", "format": "in vivo, C57BL/6J mice"}, "[3]": {"test_system": "kinome", "assay": "Kinome profiling (KINOMEscan)", "format": "binding", "procedure": "WNTinib's inhibitory profile was performed using Eurofins' (DiscoverX) KINOMVEscan platform. Inhibition trees were visualized using KinMap (Eid et al., “KinMap: A Web-Based Tool for Interactive Navigation through Human Kinome Data,” BMC 10 Bioinformatics 18(1):16 (2017), which is hereby incorporated by reference in its entirety). For regorafenib and sorafenib, publicly available data was used to visualize inhibition trees (Uitdehaag et al., “Comparison of the Cancer Gene Targeting and Biochemical Selectivities of All Targeted Kinase Inhibitors Approved for Clinical Use,” Plos ONE 9(3):e92146 (2014) and Davis et al., “Comprehensive Analysis of Kinase Inhibitor Selectivity,” Nat. Biotechnol. 29(11):1046-1051 (2011), which are hereby incorporated by reference in their entirety)."}, "[4]": {"test_system": "receptor tyrosine kinases including KIT and VEGFR1/2", "assay": "NanoBRET live cell target engagement, receptor tyrosine kinases", "format": "cell-based", "conditions": "relative to sorafenib and regorafenib"}, "[5]": {"test_system": "immune cell tumor infiltration", "assay": "Immune cell profiling of tumors by spectral cytometry", "format": "in vivo, mouse", "conditions": "compared to vehicle or standard of care (sorafenib); six days after start of dosing", "procedure": "FIGS. 14A-14G show results pertaining the use of WNTinib in combination with immunotherapy. […] C57/BL6 mice were randomized into treatment groups using IVIS imaging to quantify tumor size based on luminescence signal intensity. After randomization, kinase inhibitors were dissolved in 25% cremaphor:ethanol in water and administered orally (30 mg/kg sorafenib, 20 mg/kg WNTinib) beginning 7 days after injection following 5 days on/2 days off dosing schedule. Immunotherapy (anti-PD-1) was administered via intraperitoneal injection on days 11, 13, and 15 after injection at 200 μg. Log-rank p-values for survival in drug treatment groups to vehicle group and median survival are shown. Mice were assigned to different treatment groups as follows: vehicle (25), sorafenib (10), aPD-1 (15), WNTinib (25), and WNTinib+aPD-1 (25). […] Significant differences between groups indicated by asterisks. ** P<0.005, *** P<0.0005, as calculated with an ANOVA with Tukey test for multiple comparisons. Animals were dosed via daily oral gavage using 20 mg/kg of WNTinib and 30 mg/kg of sorafenib. […] 3 animals per indicated groups were assessed using spectral cytometry panels for both lymphocytes and myeloid cells. […]\nNext, the effect of WNTinib on immune cell tumor infiltration was evaluated."}, "[6]": {"conditions": "WNTinib 20 mg/kg daily, anti-PD-1 200 μg i.p., start ~350 mm^3"}, "[7]": {"conditions": "tumors of advanced-stage allograft study"}}, "data": [{"molecule": "CNC(=O)c1cc(Oc2ccc(NC(=O)Nc3ccc(C(F)(F)C(F)(F)F)cc3)c(F)c2)ccn1", "note": "[WNTinib, 4-(3-fluoro-4-(3-(4-(perfluoroethyl)phenyl)ureido)phenoxy)-N-methylpicolinamide]", "values": [{"measurement": "target engagement potency on cytoplasmic kinases BRAF and p38α/β", "setting": "[1]", "value": "markedly less potent than sorafenib and regorafenib"}, {"measurement": "survival in allograft combination study", "setting": "[2]; [6]", "value": "prolong survival"}, {"measurement": "tumor regression in allograft combination study", "setting": "[2]; [6]", "value": "able to induce tumor regression"}, {"measurement": "efficacy in allograft combination study", "setting": "[2]; WNTinib 20 mg/kg, sorafenib 30 mg/kg daily, anti-PD-1 200 μg i.p., start ~350 mm^3", "value": "superior efficacy"}, {"measurement": "tumor regression", "setting": "[2]; treatment started at 100 mm^3, 30 mg/kg daily oral gavage", "value": "induced significant tumor regression in the majority of animals"}, {"measurement": "efficacy in advanced-stage setting versus sorafenib", "setting": "[2]; treatment started at 300-400 mm^3, WNTinib 20 mg/kg, sorafenib 30 mg/kg", "value": "superior to the standard of care clinical compound (sorafenib)"}, {"measurement": "EZH2 T367 phosphorylation in tumors", "setting": "[2]; [7]", "value": "inhibition of EZH2 T367 phosphorylation"}, {"measurement": "WNT-target genes in tumors (qPCR)", "setting": "[2]; [7]", "value": "in vivo suppression of WNT-target genes"}, {"measurement": "kinome selectivity (selectivity scores)", "setting": "[3]; compared with sorafenib and regorafenib", "value": "generally less promiscuous than the parental compounds"}, {"measurement": "kinase targets maintained", "setting": "[3]; in vitro kinase assays", "value": "maintains several of the proposed key targets of sorafenib and regorafenib, including c-KIT, PDGFRα/β, VEGFR1/2, RET and FLT3"}, {"measurement": "live cell target engagement IC50 on receptor tyrosine kinases", "setting": "[4]", "value": "retained a similar in vivo IC50"}, {"measurement": "immune cell tumor infiltration", "setting": "[5]", "value": "significantly increase the number of CD45^+ cells, the ratio of CD4/CD8, and the number of neutrophils and reduce the number of B cells and immunosuppressed tissue associated macrophages (TAM) in tumors"}]}]}
